{
  "source": "patent US6905714B2",
  "about": "“Method for modulating steroidogenic activity” (priority 2000, dated 2005)",
  "key": {"glucocorticoid receptor": {"target": "T1, glucocorticoid receptor (Homo sapiens, UniProt P04150)", "T1 construct": "expressed in transfected cells", "T1 sequence (P04150 1-777)": "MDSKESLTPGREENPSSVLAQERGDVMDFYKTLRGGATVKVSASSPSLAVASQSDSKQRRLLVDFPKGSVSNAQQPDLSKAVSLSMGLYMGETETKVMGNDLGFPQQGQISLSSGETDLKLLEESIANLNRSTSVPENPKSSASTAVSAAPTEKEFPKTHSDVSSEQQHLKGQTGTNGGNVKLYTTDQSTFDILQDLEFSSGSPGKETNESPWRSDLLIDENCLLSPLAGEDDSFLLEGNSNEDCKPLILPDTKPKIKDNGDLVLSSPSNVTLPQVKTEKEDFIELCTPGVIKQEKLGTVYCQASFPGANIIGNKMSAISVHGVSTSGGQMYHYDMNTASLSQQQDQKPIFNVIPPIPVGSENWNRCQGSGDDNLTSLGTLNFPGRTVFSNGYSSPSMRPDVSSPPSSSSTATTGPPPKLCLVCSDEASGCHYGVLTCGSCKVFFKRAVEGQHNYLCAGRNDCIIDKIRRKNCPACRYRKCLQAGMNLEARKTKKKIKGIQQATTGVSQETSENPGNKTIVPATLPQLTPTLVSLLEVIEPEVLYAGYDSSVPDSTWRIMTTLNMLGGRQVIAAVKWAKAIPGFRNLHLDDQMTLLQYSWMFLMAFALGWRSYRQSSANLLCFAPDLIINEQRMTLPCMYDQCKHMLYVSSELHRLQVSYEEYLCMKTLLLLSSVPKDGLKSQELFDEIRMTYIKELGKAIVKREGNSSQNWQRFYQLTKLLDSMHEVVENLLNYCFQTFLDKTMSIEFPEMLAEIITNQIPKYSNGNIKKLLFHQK", "test": "Glucocorticoid receptor transactivation, luciferase reporter in HeLa cells", "assay_type": "cell-based", "method": "(§1) Thus, HeLa cells were cotransfected with an androgen receptor (AR) expression plasmid, a plasmid for expression of β-galactosidase (β-gal) and a luciferase reporter plasmid, ARE-Tata-luc (Jenster 1997) and then incubated with ethanol as a solvent control, or with the herbal extracts indicated in Table 1. Herbal extracts were added to the cells six hours after transfection. Thirty-six hours later, the cells were harvested and cell extracts assayed for luciferase activity.\n(§2) The DNA mix contained an AR expression vector, a reporter gene vector (ARE-Tata-Luc) and a βGal vectors, the last for purposes of normalizing results for the transfection efficiency. The AR expression vector comprises a cDNA encoding AR and expressed from a SV40 promoter and a rabbit β-globin polyadenylation signal, all cloned in a pBR328 vector. The β-gal vector comprises a bacterial lacZ gene under control of an SV40 promoter-enhancer. The DNA mix was preincubated for 45 min at room temperature with lipofectamine (Promega, Madison, Wis.) in a 400 μl serum-free medium. […] Cell lysates (100 μl) were added to 20 μl of luciferase substrate and luciferase activity measured with a luminometer. Transfection efficiency was assessed by βGal activity and luciferase activity normalized to the protein content of the cell lysates. Total protein in the supernatant was quantified with bovine serum albumin as the standard."}, "androgen receptor": {"target": "T2, androgen receptor (Homo sapiens, UniProt P10275)", "T2 sequence (P10275 1-920)": "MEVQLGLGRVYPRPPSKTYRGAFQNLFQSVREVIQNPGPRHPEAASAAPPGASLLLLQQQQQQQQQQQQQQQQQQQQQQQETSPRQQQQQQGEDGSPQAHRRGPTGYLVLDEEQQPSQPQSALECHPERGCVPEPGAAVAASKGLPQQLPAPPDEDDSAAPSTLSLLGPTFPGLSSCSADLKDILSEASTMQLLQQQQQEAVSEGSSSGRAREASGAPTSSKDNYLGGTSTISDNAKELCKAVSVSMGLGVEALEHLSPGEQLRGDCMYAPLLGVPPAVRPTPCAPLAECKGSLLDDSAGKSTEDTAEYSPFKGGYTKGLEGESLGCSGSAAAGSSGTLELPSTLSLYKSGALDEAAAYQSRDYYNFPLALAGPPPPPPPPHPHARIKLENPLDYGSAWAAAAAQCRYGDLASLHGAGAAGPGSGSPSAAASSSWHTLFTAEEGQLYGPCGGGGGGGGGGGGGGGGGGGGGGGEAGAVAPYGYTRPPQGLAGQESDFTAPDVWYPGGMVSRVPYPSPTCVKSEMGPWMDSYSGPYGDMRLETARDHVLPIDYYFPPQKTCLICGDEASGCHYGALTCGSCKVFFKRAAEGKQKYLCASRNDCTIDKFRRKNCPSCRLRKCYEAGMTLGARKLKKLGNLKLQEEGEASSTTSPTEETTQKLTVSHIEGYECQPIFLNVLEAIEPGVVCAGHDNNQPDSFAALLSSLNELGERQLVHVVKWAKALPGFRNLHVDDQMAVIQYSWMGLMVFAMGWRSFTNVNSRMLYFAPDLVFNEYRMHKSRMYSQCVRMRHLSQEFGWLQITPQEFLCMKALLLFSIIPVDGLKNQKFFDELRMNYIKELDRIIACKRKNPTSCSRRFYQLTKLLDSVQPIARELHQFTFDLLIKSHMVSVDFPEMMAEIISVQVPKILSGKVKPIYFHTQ", "settings": "0.3 to 10 nM; 3 nM tritiated testosterone"}, "[1]": {"tested_on": "ventral prostate gland, immature Wistar rats", "test": "Growth of the ventral prostate gland in immature Wistar rats", "assay_type": "in vivo, rat", "settings": "testosterone intramuscularly, alone (FIG. 6a)", "description": "The growth of the ventral prostate gland, an androgen-dependent tissue, in immature Wistar rats was measured.\nTo determine the androgenic effect of an ethanolic EU extract in animals, the growth of the ventral prostate gland, an androgen-dependent tissue, in immature Wistar rats was measured. […] In this model, exogenous androgen administration can be directly correlated with the growth of the ventral prostate."}, "progesterone receptor": {"target": "T3, progesterone receptor (Homo sapiens, UniProt P06401)", "T3 sequence (P06401 1-933)": "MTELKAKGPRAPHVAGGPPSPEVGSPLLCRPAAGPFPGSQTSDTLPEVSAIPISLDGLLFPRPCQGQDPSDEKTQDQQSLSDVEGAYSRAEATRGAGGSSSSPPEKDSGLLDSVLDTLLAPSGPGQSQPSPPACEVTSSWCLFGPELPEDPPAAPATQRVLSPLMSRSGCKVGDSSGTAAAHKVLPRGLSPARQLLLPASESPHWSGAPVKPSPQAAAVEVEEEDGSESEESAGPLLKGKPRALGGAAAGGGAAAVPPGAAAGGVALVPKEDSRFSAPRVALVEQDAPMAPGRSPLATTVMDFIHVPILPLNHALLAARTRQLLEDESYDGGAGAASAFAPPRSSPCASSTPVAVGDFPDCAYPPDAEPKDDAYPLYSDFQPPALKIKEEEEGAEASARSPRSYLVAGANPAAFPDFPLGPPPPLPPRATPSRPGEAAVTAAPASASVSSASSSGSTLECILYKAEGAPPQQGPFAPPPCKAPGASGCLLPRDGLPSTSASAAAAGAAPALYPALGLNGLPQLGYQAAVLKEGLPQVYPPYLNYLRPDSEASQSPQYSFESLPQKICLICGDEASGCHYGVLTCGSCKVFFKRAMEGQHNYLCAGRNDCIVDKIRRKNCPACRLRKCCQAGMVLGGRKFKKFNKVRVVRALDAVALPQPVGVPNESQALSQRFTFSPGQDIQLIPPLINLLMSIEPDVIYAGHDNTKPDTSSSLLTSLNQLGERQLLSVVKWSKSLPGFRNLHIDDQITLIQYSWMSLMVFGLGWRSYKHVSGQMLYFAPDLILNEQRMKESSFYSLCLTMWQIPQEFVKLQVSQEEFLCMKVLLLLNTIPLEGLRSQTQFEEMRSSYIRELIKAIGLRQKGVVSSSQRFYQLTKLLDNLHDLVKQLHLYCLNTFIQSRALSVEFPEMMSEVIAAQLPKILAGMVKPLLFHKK", "test": "Progesterone receptor transactivation, luciferase reporter in HeLa cells", "method": "as §1, §2"}},
  "note": "“Also recorded” adds a separate entry of the source.",
  "data": [
    {"smiles": "C[C@]12CCC(=O)C=C1CC[C@@H]1[C@@H]2[C@@H](O)C[C@@]2(C)[C@H]1CC[C@]2(O)C(=O)CO", "note": "[Cortisol, cortisol]", "values": [
      {"measurement": "Ratio of Luc activity as percentage (%) of 1 nM ligand", "setting": "glucocorticoid receptor; substance alone", "value": 100, "unit": "%"},
      {"measurement": "Luc activity (fold induction)", "setting": "glucocorticoid receptor; substance alone (extract, or 1 nM cortisol)", "value": 194, "unit": "fold"},
      {"measurement": "displacement of tritiated testosterone", "setting": "androgen receptor", "value": "does not displace tritiated testosterone"}
    ]},
    {"smiles": "C[C@]12CC[C@H]3[C@@H](CCC4=CC(=O)CC[C@@]43C)[C@@H]1CC[C@@H]2O", "note": "[testosterone]", "values": [
      {"measurement": "prostate weight (per unit body weight)", "setting": "[1]", "value": "dose-dependent increase in prostate weight; also recorded: dose-dependent increments in prostatic weight"}
    ]},
    {"smiles": "CC(=O)[C@H]1CC[C@H]2[C@@H]3CCC4=CC(=O)CC[C@]4(C)[C@H]3CC[C@]12C", "note": "[Progesterone, progesterone]", "values": [
      {"measurement": "Ratio of Luc activity as percentage (%) of 1 nM ligand", "setting": "progesterone receptor; substance alone", "value": 100, "unit": "%"},
      {"measurement": "Luc activity (fold induction)", "setting": "progesterone receptor; substance alone (extract, or 1 nM progesterone)", "value": 67, "unit": "fold"}
    ]}
  ]
}
